Test results reported in patent US12691143B2, “Method for treating cancer” (priority 2020, dated 2026).

Columns and labels:
[1] = test system: KE1 bladder cancer cell line (ERCC2-mutated derivative of KU19-19, NER-deficient); test: In vitro drug sensitivity assay (CellTiter-Glo); assay type: cell-based; settings: NER-deficient KE1, compared with isogenic KU19-19; 48 to 72 hours
Excerpt: (§1) Bladder cancer cell lines were purchased from ATCC. The KE1 bladder cancer cell line is a derivative of KU19-19 in which an ERCC2 T484 mutation has been introduced by CRISPR/Cas9 gene editing as previously described (6). The MDA-MB-468 breast cancer cell line and its ERCC4-complemented derivative have been previously described (35). Small interfering RNAs (siRNAs) targeting specific NER genes as well as a non-targeting siRNA (siNTC) were purchased from Integrated DNA Technologies Inc. (Coralville, IA, USA; see Table 9 for sequences). Cells were seeded in 6-well plates and grown to 50% confluency. A transfection mixture containing siRNA diluted to a final concentration of 30 nM in Opti-MEM media containing Lipofectamine 3000 (Life Technologies; Carlsbad, CA) was then added to cells. After 48 hours, cells were trypsinized and re-aliquoted to separate wells and transfected with 15 nM siRNA for 24 hours immediately prior to viability assays performed as described below. […]
(§2) Cells were seeded in either 96-well (5,000 cells/well) or 24-well (20,000 cells/well) plates. […] Plates were scanned using a luminescence microplate reader (BioTek). […]

[2] = test system: SC14 (SW1710 derivative with ERCC2 P463L mutation); test: In vitro drug sensitivity assay; assay type: cell-based; settings: ERCC2-mutant SC14 line compared with SW1710
Excerpt: as §1, §2

[3] = test system: cisplatin-resistant MDA-MB-468 cell line; test: In vitro drug sensitivity assay in cisplatin-resistant derivative; assay type: cell-based; settings: cisplatin-resistant vs parental MDA-MB-468
Description: Cells were seeded in either 96-well (5,000 cells/well) or 24-well (20,000 cells/well) plates. The following day, irofulven and cisplatin stock solutions were serially diluted in media and added to cells. After 48 to 72 hours, media was removed and CellTiter-Glo® reagent (Promega; Madison, WI) was added. Plates were scanned using a luminescence microplate reader (BioTek). Survival at each drug concentration was plotted as a percentage of survival in drug-free media with error bars representing the standard deviation of at least three experiments.
Platinum-based chemotherapy is a first-line treatment for numerous solid malignancies including bladder cancer, but platinum resistance frequently occurs and represents a challenging clinical problem. Although a variety of platinum resistance mechanisms have been characterized, restoration or upregulation of DNA repair is a common mechanism of resistance, particularly in HR-deficient breast and ovarian tumors^33. Mechanisms of platinum resistance in NER deficient tumors have not been characterized, and we wished to determine if acquired resistance to cisplatin would confer cross-resistance to irofulven through restoration of NER. To test this, we derived cisplatin resistance in the NER-deficient MDA-MB-468 cell line by gradual exposure to escalating doses of cisplatin (Methods).

[4] = test system: muscle-invasive bladder cancer; test: Pathologic response to neoadjuvant cisplatin-based chemotherapy, DFCI/MSKCC cohort; assay type: in vivo, human; settings: for complete response rate: all cases
Excerpt: (§3) To validate the ability of the NERDetect classifier to discriminate between ERCC2 mutant and WT bladder tumors, we analyzed WES data from three additional independent bladder cancer cohorts^53,0,31. The DFCI/MSK (n=50) and FCCC (n=48) cohorts are comprised of muscle-invasive bladder cancer patients who received neoadjuvant cisplatin-based chemotherapy followed by radical cystectomy, while the BGI cohort (n=98) included patients with MIBC or non-muscle-invasive bladder cancer.
(§4) Patients in the DFCI/MSK and FCCC cohorts were treated with cisplatin-based chemotherapy followed by radical cystectomy, and cisplatin responders were defined as those that had no residual invasive disease on pathologic examination of the cystectomy specimen.
(§5) Patients in the DFCI/MSK and Philadelphia cohorts were treated with cisplatin-based chemotherapy followed by radical cystectomy, and cisplatin responders were defined as patients with no residual invasive disease on pathologic examination of the cystectomy specimen.

[5] = test system: muscle-invasive bladder cancer; test: Pathologic response to neoadjuvant cisplatin-based chemotherapy, Philadelphia (FCCC) cohort; assay type: in vivo, human
Excerpt: as §3, §4, §5

[6] = test system: MDA-MB-468 breast cancer cell line (NER deficient, ERCC4 silenced); settings: MDA-MB-468 with re-expression of WT ERCC4; previous work; cited from earlier work
[7] = test system: muscle-invasive and metastatic urothelial cancer; settings: cisplatin-based chemotherapy, first-line; cited from earlier work

For `N.N.[Cl][Pt][Cl]` [cisplatin], the “drug sensitivity (survival as percentage of drug-free media)” value [1] was “increased sensitivity”, the drug sensitivity [2] was “significantly increased sensitivity” and the “cisplatin IC50, cisplatin resistant cell line relative to parental” value [3] was ~ 3.5 fold. It also gave a cisplatin responders ([4]; WT ERCC2 patients, ERCC2mut score<0.70 (9 of 32)) of 28%, a cisplatin responders ([4]; WT ERCC2 patients, ERCC2mut score≥0.70 (seven of nine)) of 78% and a cisplatin responders ([4]; WT ERCC2 patients, NERDetect score<0.75 (10 of 31)) of 32%. It also gave a cisplatin responders ([4]; WT ERCC2 patients, NERDetect score≥0.75 (six of eight)) of 75%, a cisplatin responders ([4]; all 41 WT ERCC2 cases (16)) of 39% and a complete response rate ([4]; ERCC2mut score<0.70 (10 of 33)) of 30%. It also gave a complete response rate ([4]; ERCC2mut signature score≥0.70 (15 of 17)) of 88%, a complete response rate ([4]; NERDetect score ≥0.75 (14 of 16)) of 87% and a complete response rate ([4]; NERDetect score<0.75 (11 of 34)) of 32%. It also gave a complete response rate ([5]; ERCC2mut score<0.70 (14 of 42)) of 33%, a complete response rate ([5]; ERCC2mut signature score≥0.70 (all six)) of 100% and a complete response rate ([5]; NERDetect score<0.75 (14 of 41)) of 34%. The complete response rate ([5]; NERDetect score≥0.75 (six of seven)) was 86%, the “cisplatin sensitivity after re-expression of ERCC4” value [6] was “could be rescued” and the “patients with an initial response” value [7] was 60-70%.
